# Results: patent publication US8354265B2, “Chemicals promoting the growth of N-acylhomoserine lactone-degrading bacteria” (Centre National de la Recherche Scientifique, priority 2007, dated 2013)
# Tests used:
# [1] = tested on: bacterial isolates from untreated and GCL-treated batches; assay: Assimilation of GCL as sole carbon source versus NAHL inactivation by isolates (FIG. 10); format: cell-based; conditions: untreated and GCL-treated (0.1 and 0.4 mL/L) batches; D14 and D28
# Procedure: Each disk represents 90 isolates from untreated or GCL-treated (0.1 and 0.4 mL/L) batches 14 days (D14) and 28 days (D28) after the beginning of the treatment.
# Bacterial isolates grown in 96-microwell plates were individually tested from production of NAHL with the A. tumefaciens biosensor NT1 (pZNLR4) and the inactivation of the C6-HSL signal, as described previously (d'Angelo-Picard et al. 2004).
# Results were cross-examined with respect to the ability of each strain to inactivate (or not) NAHL signal.
# [2] = tested on: bacterial populations of potato roots; assay: DGGE analysis of bacterial populations associated with roots; format: in vivo, Solanum tuberosum; conditions: D14 and D28; 0.1 and 0.4 mL/L, most visible at 0.4 mL/L
# Procedure: FIG. 11: DGGE analyses. […] Numbered bands on pictures were analyzed by sequencing. For each sequence or group of sequences, one of the closest rrs sequences was indicated. It is identified by its Genbank number, the similarity indice (SI) (calculated at Ribosomal Database Project http://rdp.cme.msu.edu/), and the name and taxonomical position of the bacteria of origin (Bact, Bacteria; BC, Bacteroidetes/Chlorobi group; Firm, Firmicutes; α,α-proteobacteria; β,β-proteobacteria; and γ,γ-proteobacteria).
# The structure of the bacterial population associated with roots system (ca. 10 g) was analyzed by DGGE of PCR-amplified rrs region (position 341-534 of E. coli sequence). Two samples were analyzed from each batch. The DGGE analysis was performed by Microbial Insights (Rockford, Tenn., USA), as previously described (d'Angelo-Picard et al., 2004). Band positions in each line were converted to 0 (absence) and 1 (presence) value and assembled in a matrix. Profile similarity was calculated with the Dice algorithm using DistAFLP software (http://pbil.univ-lyon1.fr/ADE-4/microb). Sequence identification of selected bands was performed using the sequence match facility of the Ribosomal Database Project (http://rdp.cme.msu.edu/), according to NCBI taxonomy (http://www.ncbi.nlm.nih.gov/Taxonomy/). […]
# [3] = tested on: acyl-HSL degrading strains of potato rhizosphere; assay: GCL treatment of potato plants in long-term hydroponic culture (FIG. 12); format: in vivo, Solanum tuberosum; parameters: dose or concentration left out as unconfirmed; conditions: 0.4 at D0, D18 and D49; at D28, D49 and D56
# Procedure: The plants were cultivated in hydroponic batches from D0 to D17, then transferred into hydroponic system allowing the long term culture until tuberisation. At each time, three samples (D0 and D7) and four samples (D28, D49 and D56) were analyzed: the number of CFU/g of roots was estimated (B), as well as the percentage of acyl-HSL-producing (C) and acyl-HSL degrading strains. Different letters indicate a significative difference (Student's t-test; α=0.05) between the two conditions, untreated and GCL-treated.
# The plants were cultivated in hydroponic batches from D0 to D17, then transferred into hydroponic system allowing the long term culture until tuberisation.
# [4] = tested on: young plants; assay: Sensitivity of young plants to the chemicals; conditions: high concentrations (1 mL/L); data not shown
smiles,measurement,setting,value
"CCC1CCC(=O)O1 (stereo not shown) [GCL, gamma-caprolactone]",occurrence of bacteria both assimilating GCL and inactivating NAHL,[1],only detected in the treated batches
same,change of bacterial populations by DGGE,[2],drastic remodelling of bacterial populations
same,effect on the percentage of acyl-HSL degraders,[3],clear effect
same,sensitivity of young plants,[4],sensitive
